From patent publication US6866861B1, “Method and composition for enhancing milk component concentrations” (Land O'Lakes, Inc., priority 1999, dated 2005)

Tested on: cows
Test: Abomasal infusion of xylitol in cows, milk component concentrations (Example 1)
Format: in vivo, cow
Method: To determine the weight percent total solids, wet basis, in a sample, the actual weight of total solids is determined by analyzing the sample in accordance with Method #925.23 (33.2.09) of Official Methods of Analysis, Association of Official Analytical Chemists (AOAC) (16th Ed., 1995). The weight percent total solids, wet basis, is then calculated by dividing the actual weight of total solids by the actual weight of the sample. The weight percent of true protein, wet basis, for a particular sample is calculated after first determining the wet basis weight percent of total Kjeldahl nitrogen and the wet basis weight percent of non-protein nitrogen in the sample. The wet basis weight percent of total Kjeldahl nitrogen in the sample is determined using the method referenced above. The wet basis weight percent of non-protein nitrogen (NPN) in the sample is determined in accordance with Method #991.21 (33.2.12) of Official Methods of Analysis, Association of Official Analytical Chemists (AOAC) (16th Ed., 1995). The weight percent of true protein, wet basis, in the sample is then determined by subtracting the wet basis weight percent of non-protein nitrogen in the sample from the wet basis weight percent of total Kjeldahl nitrogen in the sample. To determine the weight percent lactose, wet basis, in a liquid sample, the weight of the liquid sample is first determined. The actual weight of lactose in the liquid sample may then be determined using analysis kit number 176-303, that is available from Boehringer-Mannheim of Indianapolis, Ind. in accordance with the procedural instructions included with analysis kit number 176-303. The weight percent lactose, wet basis, in the liquid sample is then calculated by dividing the actual weight of lactose in the liquid sample by the actual weight of the liquid sample. To determine the weight percent fat, wet basis, in a sample, the actual weight of fat in the sample is determined in accordance with Method #974.09 (33.7.18) of Official Methods of Analysis, Association of Official Analytical Chemists (AOAC) (16th Ed., 1995). The weight percent fat, wet basis, is then calculated by dividing the actual weight of fat in the sample by the actual weight of the sample. In this example, xylitol was abomasally infused into three different cows at a rate of 100 grams per cow per day during a 14 day test period. The rations provided to the cows during the period extending from day 0, prior to abomasal infusion of xylitol, through day 14 of the test period were the same. The only difference in feeding of the cows between day 0 and days 1-14 of the test period were that during days 1-14 the cows were abomasally infused with the dosage of 100 grams of xylitol per cow per day. The xylitol rations were mixed with water in the ratio of 150 grams of water per 100 grams of xylitol to facilitate infusion. Milk from the three cows was collected and analyzed prior to infusion (on day 0) and also was collected and analyzed on the third, seventh and fourteenth day of the test period. The results presented in Table 1 below for each milk component are averages for the milk collected from the three different cows on day 0 and a mean of the day 3, 7, and 14 concentration values, averaged over all of the test cows, for each particular milk component.

[1] = milk, mean of days 3, 7, 14 minus day 0, 100 g/cow/day abomasal
[2] = milk, mean of days 3, 7 and 14, 100 g/cow/day abomasal infusion, average of 3 cows

What does the source list for `OC[C@@H](O)[C@H](O)[C@@H](O)CO` [xylitol]?
weight percent of fat, true protein, lactose, and total solids in the milk (conclusion in words) (abomasal infusion, 14 day test period): net increase; Fat, Difference (mean − day 0) [1]: +0.31 Wt %; Lactose, Difference (mean − day 0) [1]: +0.01 Wt. %; Total Solids, Difference (mean − day 0) [1]: +0.39 Wt. %; True Protein, Difference (mean − day 0) [1]: +0.10 Wt. %; Fat [2]: 3.63 Wt %; Lactose [2]: 4.66 Wt. %; Total Solids [2]: 11.82 Wt. %; True Protein [2]: 2.86 Wt. %
